The values below come from patent US7968557B2, “Substituted pyrrolo[2,3-2]pyrimidines as protein kinase inhibitors” (Novartis AG, priority 2004, dated 2011).

Type in all cases: cell-based
The target in one experiment is T1, BCR-Abl (Homo sapiens, UniProt P00519).
T1 construct: expressed in transfected cells; host or cells: murine 32D hemopoietic progenitor cells (32D-p210); the other entry of the earlier key: BCR (P11274, Breakpoint cluster region protein)
T1 sequence (P00519 229-512 limits assumed): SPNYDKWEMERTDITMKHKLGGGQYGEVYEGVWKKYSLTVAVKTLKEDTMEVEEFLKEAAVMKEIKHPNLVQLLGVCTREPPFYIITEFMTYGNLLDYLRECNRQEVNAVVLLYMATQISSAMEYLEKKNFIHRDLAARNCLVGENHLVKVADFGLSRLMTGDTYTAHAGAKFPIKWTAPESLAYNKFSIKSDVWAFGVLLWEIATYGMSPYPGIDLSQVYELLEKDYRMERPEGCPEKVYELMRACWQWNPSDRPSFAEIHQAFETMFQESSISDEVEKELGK
The experiment in a line: Inhibition of cellular BCR-Abl dependent proliferation (32D-p210 cells). As to the method: Inhibition of Cellular BCR-Abl Dependent Proliferation (High Throughput Method)
The murine cell line used is the 32D hemopoietic progenitor cell line transformed with BCR-Abl cDNA (32D-p210). These cells are maintained in RPMI/10% fetal calf serum (RPMI/FCS) supplemented with penicillin 50 μg/mL, streptomycin 50 μg/mL and L-glutamine […]. Untransformed 32D cells are similarly maintained with the addition of 15% WEHI conditioned medium as a source of IL3.
50 μl of a 32D or 32D-p210 cells suspension are plated in Greiner 384 well microplates (black) at a density of 5000 cells per well. 50 nl of test compound (1 mM in DMSO stock solution) is added to each well (ST1571 is included as a positive control). The cells are incubated for 72 hours at 37° C., 5% CO2. 10 μl of a 60% Alamar Blue solution (Tek diagnostics) is added to each well and the cells are incubated for an additional 24 hours. The fluorescence intensity (Excitation at 530 nm, Emission at 580 nm) is quantified using the Acquest™ system (Molecular Devices).
Inhibition of Cellular BCR-Abl Dependent Proliferation
32D-p210 cells are plated into 96 well TC plates at a density of 15,000 cells per well. 50 μL of two fold serial dilutions of the test compound (Cmax is 40 μM) are added to each well (ST1571 is included as a positive control). […]

The next experiment has as its target FGFR3 (Homo sapiens, UniProt P22607). The experiment in a line: IC50 for FGFR3 (method not described).
The next experiment has as its target T2, FLT3-ITD (Homo sapiens, UniProt P36888, DUP592-605).
T2 construct: expressed in transfected cells; host or cells: murine Ba/F3 cells, retroviral infection
T2 sequence (P36888 with tags, fused parts or gaps DUP592-605): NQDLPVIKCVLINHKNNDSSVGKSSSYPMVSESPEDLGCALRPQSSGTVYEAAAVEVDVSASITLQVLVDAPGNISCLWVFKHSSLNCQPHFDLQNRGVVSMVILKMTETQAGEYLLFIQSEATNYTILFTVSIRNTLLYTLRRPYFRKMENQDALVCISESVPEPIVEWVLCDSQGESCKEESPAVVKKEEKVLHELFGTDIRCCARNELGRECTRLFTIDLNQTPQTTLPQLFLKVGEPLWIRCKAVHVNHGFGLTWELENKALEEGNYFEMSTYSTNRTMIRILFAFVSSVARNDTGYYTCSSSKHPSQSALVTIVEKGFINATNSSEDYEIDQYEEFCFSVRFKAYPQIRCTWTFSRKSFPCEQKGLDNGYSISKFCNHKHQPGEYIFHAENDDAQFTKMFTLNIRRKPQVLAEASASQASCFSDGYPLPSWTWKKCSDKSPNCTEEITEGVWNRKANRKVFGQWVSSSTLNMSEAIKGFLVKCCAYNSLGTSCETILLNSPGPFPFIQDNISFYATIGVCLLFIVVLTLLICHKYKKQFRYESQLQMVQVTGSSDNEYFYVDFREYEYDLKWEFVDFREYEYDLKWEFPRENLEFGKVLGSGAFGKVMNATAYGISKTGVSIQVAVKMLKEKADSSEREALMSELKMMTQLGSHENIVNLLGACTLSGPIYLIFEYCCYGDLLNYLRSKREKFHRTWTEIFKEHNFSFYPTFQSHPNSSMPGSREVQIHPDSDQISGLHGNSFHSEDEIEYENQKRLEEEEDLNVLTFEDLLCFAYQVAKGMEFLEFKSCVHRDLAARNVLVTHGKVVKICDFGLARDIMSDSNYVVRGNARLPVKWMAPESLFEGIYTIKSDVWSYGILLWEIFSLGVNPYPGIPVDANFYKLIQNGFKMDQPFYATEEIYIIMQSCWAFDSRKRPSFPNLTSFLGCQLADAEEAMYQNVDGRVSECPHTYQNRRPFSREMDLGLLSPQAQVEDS
The experiment in a line: Flt-3 inhibition, proliferation of Ba/F3-Flt3-ITD cells. An excerpt: Compounds that have differential activity (more than or equal to 10 fold difference in sensitivity between Flt3+cell lines and Flt3− cell lines are selected for further study.
The cell lines used for the initial screening are sub-lines of Ba/F3 cells that are engineered to over-express mutant or wild-type (non-mutated) Flt3 following infection with a retrovirus expressing appropriate Flt3 cDNAs. The parent cell line, Ba/F3 is dependent on interleukin-3 for proliferation, and when deprived of IL-3, the cells rapidly cease proliferation and die. The retrovirus expresses Flt3 from the retrovirual LTR and the neo gene from an IRES site. Ba/F3 cells are selected in G418 and analyzed for expression of Flt3 by fluorescence activated cell sorting (FACS). Cell lines with two different Flt3 mutations are used. One mutant expresses a Flt-3 that has a 14 amino acid duplication in the juxtamembrane domain encoded by exon 11, the specific duplication being . . . VDFREYEYDLKWEF . . . […]
Yo-Pro-1 iodide (Molecular Probes) is added to the cells at a final concentration of 2.5 μM in NaCl/Na-citrate buffer. The cells are incubated with Yo-Pro for 10 minutes at room temperature and then read on a fluorimeter for determination of cytotoxicity. Next, the cells are lysed with NP40/EDTA/EGTA buffer, incubated at room temperature for 90 minutes and read for the determination of proliferation. […]

The target in the next experiment is T3, PDGFR-beta (Homo sapiens, UniProt P09619).
T3 construct: expressed in transfected cells; host or cells: BaF3
The experiment in a line: IC50 for BaF3/PDGFR-beta (method not described).

The target of the next experiment is JAK2 (Homo sapiens, UniProt O60674). As to the kind of experiment: IC50 for JAK2 (method not described).
The next experiment addresses Tel-TRKC (Homo sapiens, UniProt Q16288). As to the kind of experiment: IC50 for Tel-TRKC (method not described).

Read-outs that look alike come from different tables or passages of the source.

Sequence of FGFR3 (P22607 23-806, species assumed): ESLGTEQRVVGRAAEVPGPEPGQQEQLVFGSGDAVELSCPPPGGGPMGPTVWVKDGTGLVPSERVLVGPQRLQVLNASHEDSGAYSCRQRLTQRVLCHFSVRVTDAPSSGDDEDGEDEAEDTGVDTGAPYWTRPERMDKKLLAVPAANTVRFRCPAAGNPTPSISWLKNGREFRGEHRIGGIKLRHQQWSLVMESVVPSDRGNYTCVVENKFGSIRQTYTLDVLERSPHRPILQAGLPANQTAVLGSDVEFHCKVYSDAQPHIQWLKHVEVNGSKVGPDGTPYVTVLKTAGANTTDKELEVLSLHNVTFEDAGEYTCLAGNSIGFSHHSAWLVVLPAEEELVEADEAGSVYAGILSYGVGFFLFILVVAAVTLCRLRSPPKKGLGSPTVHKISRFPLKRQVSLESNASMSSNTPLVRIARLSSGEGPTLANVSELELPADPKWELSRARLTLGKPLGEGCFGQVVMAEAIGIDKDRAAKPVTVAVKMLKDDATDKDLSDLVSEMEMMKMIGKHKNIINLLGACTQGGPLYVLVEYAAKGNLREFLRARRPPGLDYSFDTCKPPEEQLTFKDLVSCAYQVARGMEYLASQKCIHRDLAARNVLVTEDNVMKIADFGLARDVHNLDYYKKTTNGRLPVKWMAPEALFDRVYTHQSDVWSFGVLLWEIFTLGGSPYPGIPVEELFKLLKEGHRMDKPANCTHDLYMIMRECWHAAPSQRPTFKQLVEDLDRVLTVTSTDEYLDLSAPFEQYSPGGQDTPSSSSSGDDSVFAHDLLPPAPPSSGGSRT
T3 sequence (P09619 33-1106, species assumed): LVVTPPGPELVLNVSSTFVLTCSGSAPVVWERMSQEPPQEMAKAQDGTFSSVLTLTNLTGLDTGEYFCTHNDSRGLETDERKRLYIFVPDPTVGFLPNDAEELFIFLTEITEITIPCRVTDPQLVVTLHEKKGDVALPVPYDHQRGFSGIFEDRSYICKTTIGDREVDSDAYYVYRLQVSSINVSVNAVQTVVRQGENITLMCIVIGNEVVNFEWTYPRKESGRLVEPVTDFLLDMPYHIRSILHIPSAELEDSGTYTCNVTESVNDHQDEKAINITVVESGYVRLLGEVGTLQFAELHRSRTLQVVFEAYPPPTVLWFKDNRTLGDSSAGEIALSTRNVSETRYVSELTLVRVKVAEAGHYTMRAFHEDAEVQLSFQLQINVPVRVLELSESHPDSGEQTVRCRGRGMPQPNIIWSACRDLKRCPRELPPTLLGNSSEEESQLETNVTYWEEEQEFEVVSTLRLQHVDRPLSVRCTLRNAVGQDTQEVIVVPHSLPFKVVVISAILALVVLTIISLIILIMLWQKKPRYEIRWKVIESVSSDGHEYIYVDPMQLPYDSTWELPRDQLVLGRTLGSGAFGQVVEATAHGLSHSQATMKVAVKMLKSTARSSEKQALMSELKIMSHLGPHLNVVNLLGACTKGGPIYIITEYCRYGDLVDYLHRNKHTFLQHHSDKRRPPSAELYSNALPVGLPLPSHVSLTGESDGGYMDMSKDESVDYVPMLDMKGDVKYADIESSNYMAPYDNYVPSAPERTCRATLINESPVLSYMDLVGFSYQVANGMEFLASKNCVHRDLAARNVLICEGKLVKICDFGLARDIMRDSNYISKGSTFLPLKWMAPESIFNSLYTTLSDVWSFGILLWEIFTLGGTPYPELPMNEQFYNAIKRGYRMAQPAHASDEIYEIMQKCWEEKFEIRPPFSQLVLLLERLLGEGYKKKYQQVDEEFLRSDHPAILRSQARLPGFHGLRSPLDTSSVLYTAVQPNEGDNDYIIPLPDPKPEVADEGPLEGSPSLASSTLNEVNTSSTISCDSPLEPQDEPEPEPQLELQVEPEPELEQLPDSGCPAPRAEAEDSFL
Sequence of JAK2 (O60674 whole entry, species assumed): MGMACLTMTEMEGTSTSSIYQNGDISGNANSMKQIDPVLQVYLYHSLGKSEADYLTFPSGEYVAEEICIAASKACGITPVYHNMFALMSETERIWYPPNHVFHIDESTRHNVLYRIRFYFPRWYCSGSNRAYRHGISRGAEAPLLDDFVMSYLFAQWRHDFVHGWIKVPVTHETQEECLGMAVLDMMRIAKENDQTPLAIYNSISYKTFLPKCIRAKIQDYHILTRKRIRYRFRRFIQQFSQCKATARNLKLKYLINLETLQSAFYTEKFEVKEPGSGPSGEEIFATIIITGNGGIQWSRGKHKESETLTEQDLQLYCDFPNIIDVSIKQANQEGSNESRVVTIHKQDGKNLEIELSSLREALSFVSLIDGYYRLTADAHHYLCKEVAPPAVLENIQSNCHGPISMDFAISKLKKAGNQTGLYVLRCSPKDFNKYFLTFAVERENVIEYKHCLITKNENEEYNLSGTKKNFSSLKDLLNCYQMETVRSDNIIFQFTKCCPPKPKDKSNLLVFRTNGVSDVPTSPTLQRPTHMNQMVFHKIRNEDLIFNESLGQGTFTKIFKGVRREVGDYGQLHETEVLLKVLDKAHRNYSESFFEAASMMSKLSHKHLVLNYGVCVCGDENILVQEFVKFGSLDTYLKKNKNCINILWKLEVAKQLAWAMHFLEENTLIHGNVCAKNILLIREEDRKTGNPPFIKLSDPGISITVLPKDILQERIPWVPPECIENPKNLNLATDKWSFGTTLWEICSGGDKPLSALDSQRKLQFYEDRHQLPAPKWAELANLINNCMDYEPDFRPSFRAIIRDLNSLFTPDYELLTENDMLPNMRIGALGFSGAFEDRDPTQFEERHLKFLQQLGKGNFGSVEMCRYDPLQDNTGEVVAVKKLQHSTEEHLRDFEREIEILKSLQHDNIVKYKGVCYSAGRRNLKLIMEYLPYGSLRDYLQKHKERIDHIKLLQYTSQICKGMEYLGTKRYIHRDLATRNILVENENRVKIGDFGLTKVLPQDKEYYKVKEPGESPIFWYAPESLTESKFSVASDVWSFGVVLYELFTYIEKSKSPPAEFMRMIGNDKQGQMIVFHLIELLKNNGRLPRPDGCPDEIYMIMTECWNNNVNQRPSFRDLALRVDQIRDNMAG
Sequence of Tel-TRKC (Q16288 530-839): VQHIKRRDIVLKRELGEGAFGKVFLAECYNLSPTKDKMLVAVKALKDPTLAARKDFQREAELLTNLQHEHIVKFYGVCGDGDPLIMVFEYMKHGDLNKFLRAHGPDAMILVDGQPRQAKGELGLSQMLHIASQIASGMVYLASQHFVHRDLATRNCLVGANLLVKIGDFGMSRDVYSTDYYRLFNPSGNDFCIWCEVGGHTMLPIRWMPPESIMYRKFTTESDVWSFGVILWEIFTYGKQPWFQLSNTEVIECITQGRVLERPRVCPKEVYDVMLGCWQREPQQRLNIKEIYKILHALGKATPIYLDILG
Sequence of Tel-TRKC (P41212 1-336 partner): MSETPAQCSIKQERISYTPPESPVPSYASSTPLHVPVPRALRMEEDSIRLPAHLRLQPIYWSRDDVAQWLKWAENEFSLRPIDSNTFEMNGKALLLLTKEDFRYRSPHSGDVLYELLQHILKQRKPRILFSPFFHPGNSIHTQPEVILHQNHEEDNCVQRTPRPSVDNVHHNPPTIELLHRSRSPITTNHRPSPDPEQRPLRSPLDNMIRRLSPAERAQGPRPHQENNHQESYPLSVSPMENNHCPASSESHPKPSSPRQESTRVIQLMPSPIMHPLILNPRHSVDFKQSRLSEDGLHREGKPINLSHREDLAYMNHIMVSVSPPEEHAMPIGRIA

`COc1ccc(Nc2ncc3ccn(-c4ccnc(Cl)c4)c3n2)c(C)c1` [example 47, [7-(2-Chloro-pyridin-4-yl)-7H-pyrrolo[2,3-d]pyrimidin-2-yl]-(4-methoxy-2-methyl-phenyl)-amine] returned an IC50 against BCR-Abl of 0.408 µM. `COc1cc(Nc2ncc3c(n2)N(c2ccccn2)CC3)cc(OC)c1OC` [example 61, (7-Pyridin-2-yl-6,7-dihydro-5H-pyrrolo[2,3-d]pyrimidin-2-yl)-(3,4,5-trimethoxy-phenyl)-amine] showed an IC50 against FGFR3 of 0.284 µM.

For `COc1cc(Nc2ncc3ccn(-c4cccc(CCC#N)c4)c3n2)cc(OC)c1OC` [example 85, 3-{3-[2-(3,4,5-Trimethoxy-phenylamino)-pyrrolo[2,3-d]pyrimidin-7-yl]-phenyl}-propionitrile], the IC50 on FLT3-ITD turned out to be 0.016 µM.

Take `COc1cc(Nc2ncc3ccn(-c4cccc(CC#N)c4)c3n2)cc(OC)c1OC` [example 104, {3-[2-(3,4,5-Trimethoxy-phenylamino)-pyrrolo[2,3-d]pyrimidin-7-yl]-phenyl}-acetonitrile]: the IC50 on FGFR3 turned out to be 0.282 µM; on PDGFR-beta (read-out: IC50 for PDGFR-beta), 0.033 µM; against FLT3-ITD, 0.029 µM; at JAK2 it was 0.342 µM; against Tel-TRKC, 0.479 µM. In the case of `COc1cc(Nc2ncc3ccn(-c4cccc(Cc5nnnn5C)c4)c3n2)cc(OC)c1OC` [example 120, {7-[3-(1-Methyl-1H-tetrazol-5-ylmethyl)-phenyl]-7H-pyrrolo[2,3-d]pyrimidin-2-yl}-(3,4,5-trimethoxy-phenyl)-amine], on PDGFR-beta (BaF3/PDGFR-beta, read-out: IC50 for BaF3/PDGFR-beta), the IC50 turned out to be 0.029 µM.
